Source: US20150004620A1, “METHOD OR DEVICE FOR IDENTIFYING INHIBITOR OF EPITHELIAL MESENCHYMAL TRANSITION” (Agency for Science, Technology and Research, priority 2011, published 2015)
Read-outs that look alike come from different tables or passages of the source.

Legend:
Type in all cases: cell-based
[1] = system: HGF-induced EMT in NBT-II cells; test: EMT spot migration assay, HGF-induced; conditions: for IC50: HGF-induced EMT (4 ng/ml HGF), CDR dose response from 6.67 μM, read-out: Cell Dispersion IC 50, HGF
Experimental: (§1) NBT-II cells were stably transfected with mcherry-fluorescent H2B and maintained in DMEM supplemented with 10% fetal bovine serum (FBS, Thermo Scientific), 1 μg/ml puromycin (Sigma) and 100 units/ml penicillin-streptomycin (1× pen-strep, Invitrogen). Cells were grown to 80% confluency in tissue culture flasks prior to plating. Cells were trypsinized and concentrated to a density of 5×10^6 cell/ml in CO2-independent medium (Invitrogen) supplemented with 10% FBS. The cell suspension was then evenly dispersed into the wells of two columns of a 96-well V-bottom plate. Using a robotic liquid-handling station (Bravo, Agilent Technologies), 0.5 μl of cell suspension was transferred from the two columns of the cell suspension-loaded plate and deposited into the center of the wells of two columns of a 96-well clear bottom, black assay plate (Corning). This process was repeated six times so that all 96 wells of the assay plate were deposited with a cell suspension spot. The plate was then sealed to minimize evaporation of the cell suspension spots and transferred to a 37° C., 5% CO2 incubator to allow for cells to attach to the culture surface. After 1 hour, the plate was gently washed with medium once to remove unattached cells, refreshed with 100 μl of assay medium (DMEM supplemented with 10% FBS and 1× pen-strep), and then further incubated to allow for cell-cell contacts to establish in the cell colonies.
(§2) Four tiled, non-overlapping images were acquired around the center of each well, and were then stitched together during image analysis to generate a montage covering an area of 3.2 mm×3.2 mm. These images (T1) represent the initial state of the cell colonies before EMT induction.
(§3) After the T1 images were acquired, 1 μl of test compounds were transferred from compound stock plates and added to the assay plates. Appropriate negative controls (1 μl DMSO) and positive controls (1 μl 1.0 mM compound in DMSO) were also added into columns 1 and 12 of each assay plate, respectively. […] The cultures were then further incubated overnight.
(§4) The next day, 50 μl of growth factor-containing medium was added to each well of the assay-plates. For each of the growth factor-induced EMT spot migration assays, the final growth factor concentrations in each well is optimized to be 20 ng/ml EGF (Sigma), 4 ng/ml HGF (Calbiochem) or 150 ng/ml IGF-1 (R&D Systems), respectively. The cultures were then incubated for another 24 hours, to allow for EMT and sufficient cell motility/dispersion to occur in the cell colonies.
(§5) Finally, the cell colonies were imaged again using the microplate imager, as described above. These images (T2) represent the final state of the cell colonies after compound treatment and EMT induction. The acquired T1 and T2 image sets for each assay plate were then sent for image analysis.
(§6) The acquisition of each well was obtained by four adjacent field images with no interstice in between. Each field image was loaded and nuclei were initially segmented independently of other fields to prevent artifact at the field border. Nuclei segmentation was achieved by combining a wavelet transform which is robust to noise and unhomogeneous background, and a watershed algorithm based on intensities to split nuclei clusters. Mask of nuclei segmentation of the different fields were then stitched together in order to obtain a large segmentation of the whole well. Cell bodies were estimated by applying a morphological dilation on the nucleus segmentation using a disk of 30 pixels (48 μm) in diameter. In cells that are contiguous, such as in a cell colony, nuclei segmentation dilation will result in the formation of continuous region areas with surrounding cells which can then be identified as colonies.
(§7) Total cell number and spreading coefficient values for each well were then exported into an Excel sheet.

[2] = system: E-cadherin; test: Western blot of EMT marker E-cadherin in growth factor-treated NBT-II cells; conditions: NBT-II cells, 0.5, 2 and 8 μM compound overnight, then EGF, HGF or IGF-1 for 24 h (FIG. 7)
Experimental: NBT-II cells were treated with compounds at 0.5, 2 and 8 μM overnight and incubated with a growth factor for 24 h. Cells were lysed with protease/phosphatase inhibitor-containing RIPA buffer. Proteins are separated in 8% polyacrylamide gels and transferred to PDVF membranes. Membranes were blocked in 5% BSA and incubated at 4° C. overnight with MMP-13 (Millipore), E-cadherin (BD) and α-tubulin (Sigma) primary antibodies. Membranes were then developed with HRP-conjugated secondary antibody (Amersham) and ECL substrate (Millipore).
The possibilities that ALK5, MEK, PI3K and SRC targeting compounds could modulate the expression of EMT markers, such as E-cadherin and matrix metalloproteinase-13 (MMP-13) under EMT-activated conditions were also investigated (FIG. 7). With the exception of P13K inhibitor GDC-0941, the compounds in general abrogated MMP-13 expression in growth factor-treated samples, PI3K inhibition has been previously shown to augment MMP-13 expression. […] These findings are consistent with previous reports showing that ALK5, MEK and SRC play a role in cell motility and tumor progression, while PI3K predominately regulates cell proliferation.

[3] = system: EGF-induced EMT in NBT-II cells; test: EMT spot migration assay, EGF-induced; conditions: for IC50: read-out: Cell Dispersion IC 50, EGF; for Cell dispersion pattern at T2 (FIG. 1D): 6.67 μM compound and EGF
Experimental: as §1, §2, §3, §4, §5, §6, §7

[4] = system: IGF-1-induced EMT in NBT-II cells; test: EMT spot migration assay, IGF-1-induced; conditions: IGF-1-induced EMT (150 ng/ml IGF-1), CDR dose response from 6.67 μM, read-out: Cell Dispersion IC 50, IGF-1
Experimental: as §1, §2, §3, §4, §5, §6, §7

[5] = system: MMP-13; test: Western blot of EMT marker MMP-13 in growth factor-treated NBT-II cells; conditions: NBT-II cells, 0.5, 2 and 8 μM compound overnight, then growth factor for 24 h (FIG. 7)
[6] = EGF-induced EMT (20 ng/ml EGF), NBT-II cells, CDR dose response from 6.67 μM

Compound	IC50 [1]	IC50 [3, 6]	IC50 [4]	E-cadherin expression [2]	IC50 [3]	MMP-13 expression [5]	Cell dispersion pattern at T2 (FIG. 1D) ([3]; NBT-II cells)	Inhibition of HGF-induced EMT (growth factor specificity) ([1]; spot migration assay)
Cc1cc(N2CCOCC2)cc2[nH]c(-c3c(NC[C@@H](O)c4cccc(Cl)c4)cc[nH]c3=O)nc12 [BMS-536924]	2.3 µM	> 5 µM	0.17 µM					
C#Cc1cccc(Nc2ncnc3cc(OCCOC)c(OCCOC)cc23)c1 [Erlotinib]	> 5 µM		> 5 µM		0.95 µM			
CS(=O)(=O)N1CCN(Cc2cc3nc(-c4cccc5[nH]ncc45)nc(N4CCOCC4)c3s2)CC1 [GDC-0941]	0.38 µM	0.74 µM	0.5 µM	restored the E-cadherin protein levels		exception		
c1ccc(-c2[nH]ncc2-c2ccnc3ccccc23)nc1 [LY-364947]	0.18 µM	0.14 µM	0.24 µM					
CS(=O)(=O)CCNCc1ccc(-c2ccc3ncnc(Nc4ccc(OCc5cccc(F)c5)c(Cl)c4)c3c2)o1 [Lapatinib]	> 5 µM	0.62 µM	> 5 µM					
O=C(NOC[C@H](O)CO)c1ccc(F)c(F)c1Nc1ccc(I)cc1F [PD0325901]	0.02 µM	0.031 µM	0.0089 µM	augment E-cadherin expression				
OCCn1cc(-c2cnc3nnn(Cc4ccc5ncccc5c4)c3n2)cn1 [PF-04217903]	0.055 µM	> 5 µM	> 5 µM					specifically inhibited HGF-induced EMT
Cc1ccc(-c2nn(C(C)(C)C)c3ncnc(N)c23)cc1 [PP1]	2 µM	2.3 µM	1.2 µM				pattern of inhibition	
NC(=O)c1ccc(-c2nc(-c3ccc4c(c3)OCO4)c(-c3ccccn3)[nH]2)cc1 [SB-431542]	0.94 µM	1.6 µM	0.82 µM					
FC(F)c1nc2ccccc2n1-c1nc(N2CCOCC2)nc(N2CCOCC2)n1 [ZSTK474]	0.41 µM	0.85 µM	0.66 µM					

More lines, main results first:

IC50 [1]	IC50 [3, 6]	IC50 [4]	Compound	E-cadherin expression [2]	IC50 [3]	MMP-13 expression [5]	Cell dispersion pattern at T2 (FIG. 1D) ([3]; NBT-II cells)	Inhibition of HGF-induced EMT (growth factor specificity) ([1]; spot migration assay)
0.13 µM	0.069 µM	0.12 µM	Cc1cccc(-c2nn(C(=S)Nc3ccccc3)cc2-c2ccnc3ccccc23)n1 [A83-01]	restored the E-cadherin protein levels				
> 5 µM	0.33 µM	> 5 µM	COc1cc2ncnc(Nc3cccc(Cl)c3)c2cc1OC [AG1478]					
0.79 µM	0.84 µM	0.88 µM	Cn1cnc2c(F)c(Nc3ccc(Br)cc3Cl)c(C(=O)NOCCO)cc21 [AZD6244]					
0.82 µM	1 µM	1.2 µM	O=C(NOCC1CC1)c1ccc(F)c(F)c1Nc1ccc(I)cc1Cl [CI-1040]					
1.4 µM	1.1 µM	1.9 µM	NC(=O)c1ccc(-c2nc(-c3ccc4c(c3)OCCO4)c(-c3ccccn3)[nH]2)cc1 [D4476]					
0.094 µM	> 5 µM	> 5 µM	Cn1cc(-c2ccc3nnc(C(F)(F)c4ccc5ncccc5c4)n3n2)cn1 [JNJ-38877605]					
> 5 µM	0.55 µM	> 5 µM	COc1cc2ncnc(Nc3cccc(Br)c3)c2cc1OC [PD153035]				pattern of inhibition	
> 5 µM	1.2 µM	> 5 µM	CNc1cc2c(Nc3cccc(Br)c3)ncnc2cn1 [PD158780]					
0.38 µM	0.68 µM	0.4 µM	Oc1cccc(-c2nc(N3CCOCC3)c3oc4ncccc4c3n2)c1 [PI-103]					
0.4 µM	0.95 µM	0.62 µM	COc1ccc2c(c1OC)N=C(NC(=O)c1cccnc1)N1CCN=C21 [PIK-90]					
0.11 µM	0.085 µM	0.15 µM	Fc1ccc(Cl)cc1-c1nc(Nc2ccncc2)c2nccnc2n1 [SD-208]					
> 5 µM	0.8 µM	> 5 µM	COc1cc2ncnc(Nc3ccc(O)c(Br)c3)c2cc1OC [WHI-P154]					
